Test results taken from PMC3265362 (Biochemical Journal, 2008).
Where “and” joins values, the source holds several entries; their conditions need not be identical. Identical values can stand only once. One block for each molecule: values may come before it.

Columns and labels:
human QR2 [1] = target: T1, human QR2 (Homo sapiens, UniProt P16083); assay: ITC; format: binding; details: for ΔG / −TΔS / ΔH: single-site binding model; for ΔH: 50 mM Hepes pH 7.5, 100 mM NaCl, 1 mM TCEP
T1 sequence (P16083 1-231): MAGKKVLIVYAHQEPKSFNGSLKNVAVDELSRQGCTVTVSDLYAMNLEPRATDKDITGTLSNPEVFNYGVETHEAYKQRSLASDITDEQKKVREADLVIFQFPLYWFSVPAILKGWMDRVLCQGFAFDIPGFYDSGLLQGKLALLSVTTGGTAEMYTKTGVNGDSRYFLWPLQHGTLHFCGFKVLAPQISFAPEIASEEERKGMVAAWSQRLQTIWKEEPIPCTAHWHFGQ

human QR2 [2] = target: T1, human QR2; assay: Steady-state kinetics, mechanism of inhibition of QR2; format: biochemical; details: fixed NMeH 100 μM, various menadione
human QR2 [3] = target: T1, human QR2; details: read-out: IC50 value, Mammalian cells; cytosolic fraction of mammalian cell lines overexpressing human QR2, dihydrobenzylnicotinamide as co-substrate; ref [37]; cited from earlier work
[4] = target: T2, human QR2 (quinone reductase 2) (human), P16083; assay: crystal structure; details: remark: other sources report otherwise
T2 chain: T1 sequence (P16083 1-231)

Molecule: COc1ccc2[nH]c(I)c(CCNC(C)=O)c2c1 [2-Iodomelatonin]
h (Hill coefficient, a measure of the stoichiometry of binding) (human QR2 [1]): 0.8
ΔG (human QR2 [1]): -8.5 ± 0.38 kcal/mol
−TΔS (human QR2 [1]): -0.65 ± 0.24 kcal/mol
ΔH (human QR2 [1]): -7.85 ± 0.62 kcal/mol
ΔH (human QR2 [1]; listed as 2-iodomelatonin): -7.85 kcal/mol

Molecule: CC(=O)NCCc1c[nH]c2ccc(O)cc12 [N-Acetyl-5-hydroxytryptamine]
IC50 (human QR2 [3]): 99 ± 14 µM

Molecule: Oc1ccc(/C=C/c2cc(O)cc(O)c2)cc1 [Resveratrol]
h (Hill coefficient, a measure of the stoichiometry of binding) (human QR2 [1]): 0.9
ΔG (human QR2 [1]): -9.8 ± 0.50 kcal/mol
−TΔS (human QR2 [1]): 5.01 ± 0.61 kcal/mol
ΔH (human QR2 [1]): -14.6 ± 0.15 kcal/mol

Further lines, results first:

h (Hill coefficient, a measure of the stoichiometry of binding) (human QR2 [1]): 0.8
ΔG (human QR2 [1]): -8.07 ± 0.3 kcal/mol
−TΔS (human QR2 [1]): 2.38 ± 0.11 kcal/mol
ΔH (human QR2 [1]): -10.45 ± 0.4 kcal/mol
ΔH (human QR2 [1]; listed as melatonin): -10.45 kcal/mol
Ki (uncompetitive against menadione) (human QR2 [2]): 92 µM and 91.6 ± 4.6 µM
Molecule: COc1ccc2[nH]cc(CCNC(C)=O)c2c1 [Melatonin]

stoichiometry N [4]: 2
B1: human QR2 (quinone reductase 2), P16083 1-231 (enzyme)
chain: T1 sequence (P16083 1-231)
